Measurements taken from US11661426B2, “Imidazole-containing inhibitors of ALK2 kinase” (BioCryst Pharmaceuticals, Inc., priority 2017, dated 2023).

target: ALK2 (Homo sapiens (Human), UniProt Q04771); experiment: ALK2 inhibition, LanthaScreen Eu Kinase Binding Assay (ThermoFisher Scientific / Life Technologies); conditions: read-out: Measured Ki (IC50) Value for Compounds: IC50
Description: Biochemical assays to measure the inhibitory effects of the compounds were performed by ThermoFisher Scientific (Life Technologies). ALK2 inhibition was tested using LanthaScreen™ Eu Kinase Binding Assay screening protocol.

ALK2, sequence (Q04771 21-509): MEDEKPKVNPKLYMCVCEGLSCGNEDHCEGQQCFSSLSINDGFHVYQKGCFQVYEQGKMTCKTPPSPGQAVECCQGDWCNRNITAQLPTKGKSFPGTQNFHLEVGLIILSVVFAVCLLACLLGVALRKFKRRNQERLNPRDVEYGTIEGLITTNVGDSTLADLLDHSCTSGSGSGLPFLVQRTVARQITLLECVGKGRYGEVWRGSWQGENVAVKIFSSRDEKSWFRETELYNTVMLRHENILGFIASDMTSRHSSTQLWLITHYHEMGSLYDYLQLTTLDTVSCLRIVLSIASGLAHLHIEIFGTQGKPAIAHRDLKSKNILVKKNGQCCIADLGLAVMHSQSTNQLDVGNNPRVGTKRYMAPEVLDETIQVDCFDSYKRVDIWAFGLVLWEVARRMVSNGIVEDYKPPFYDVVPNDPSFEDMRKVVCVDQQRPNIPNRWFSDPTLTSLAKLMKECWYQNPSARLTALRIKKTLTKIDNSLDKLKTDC

| Compound | IC50 |
| --- | --- |
| COc1cc(-n2cnc(Nc3nc(N4CCC[C@H]4CO)nc4sc(CN5CCN(C)CC5)cc34)c2)cc(OC)c1OC [Compound 104b, (S)-(1-(6-((4-methylpiperazin-1-yl)methyl)-4-((1-(3,4,5-trimethoxyphenyl)-1H-imidazol-4-yl)amino)thieno[2,3-d]pyrimidin-2-yl)pyrrolidin-2-yl)methanol] | < 100 nM |
| COc1cc(-n2cnc(Nc3nc(N4CCC[C@H]4CO)nn4c(CN5CCCCC5)ccc34)c2)cc(OC)c1OC [Compound 105b, (S)-(1-(7-(piperidin-1-ylmethyl)-4-((1-(3,4,5-trimethoxyphenyl)-1H-imidazol-4-yl)amino)pyrrolo[2,1-f][1,2,4]triazin-2-yl)pyrrolidin-2-yl)methanol] | < 100 nM |
| COc1cc(-n2cnc(Nc3nc(N4CCC[C@H]4CO)nn4c(CN5CCN(C6CC6)CC5)ccc34)c2)cc(OC)c1OC [Compound 106b, (S)-(1-(7-((4-cyclopropylpiperazin-1-yl)methyl)-4-((1-(3,4,5-trimethoxyphenyl)-1H-imidazol-4-yl)amino)pyrrolo[2,1-f][1,2,4]triazin-2-yl)pyrrolidin-2-yl)methanol] | < 100 nM |
| COc1cc(-n2cnc(Nc3nc(N4CCC[C@H]4CO)nn4c(C5=CCNCC5)ccc34)c2)cc(OC)c1OC [Compound 107a, (S)-(1-(7-(1,2,3,6-tetrahydropyridin-4-yl)-4-(1-(3,4,5-trimethoxyphenyl)-1H-imidazol-4-ylamino)pyrrolo[1,2-f][1,2,4]triazin-2-yl)pyrrolidin-2-yl)methanol] | < 100 nM |
| COc1cc(-n2cnc(Nc3nc(N4CCC[C@H]4CO)nc4sc(CN5CCN(c6ccccn6)CC5)cc34)c2)cc(OC)c1OC [Compound 108b, (S)-(1-(6-((4-(pyridin-2-yl)piperazin-1-yl)methyl)-4-((1-(3,4,5-trimethoxyphenyl)-1H-imidazol-4-yl)amino)thieno[2,3-d]pyrimidin-2-yl)pyrrolidin-2-yl)methanol] | < 100 nM |
| COc1cc(-n2cnc(Nc3nc(-c4cccc(C=O)c4)nc4sc(CO)cc34)c2)cc(OC)c1OC [Compound 109a, 3-(6-(hydroxymethyl)-4-((1-(3,4,5-trimethoxyphenyl)-1H-imidazol-4-yl)amino)thieno[2,3-d]pyrimidin-2-yl)benzaldehyde] | < 100 nM |
| COc1cc(-n2cnc(Nc3nc(-c4cccc(C=O)c4)nn4cccc34)c2)cc(OC)c1OC [Compound 110a, 3-(4-((1-(3,4,5-trimethoxyphenyl)-1H-imidazol-4-yl)amino)pyrrolo[2,1-f][1,2,4]triazin-2-yl)benzaldehyde] | < 100 nM |
| COc1cc(-n2cnc(Nc3nc(N4CCC[C@H]4CO)nn4c(CN5CCOCC5)ccc34)c2)cc(OC)c1OC [Compound 111b, (S)-(1-(7-(morpholinomethyl)-4-((1-(3,4,5-trimethoxyphenyl)-1H-imidazol-4-yl)amino)pyrrolo[2,1-f][1,2,4]triazin-2-yl)pyrrolidin-2-yl)methanol] | < 100 nM |
| COc1cc(-n2cnc(Nc3nc(N4CCC[C@H]4CO)nn4c(CN5CCN(C)CC5)ccc34)c2)cc(OC)c1OC [Compound 112b, (S)-(1-(7-((4-methylpiperazin-1-yl)methyl)-4-((1-(3,4,5-trimethoxyphenyl)-1H-imidazol-4-yl)amino)pyrrolo[2,1-f][1,2,4]triazin-2-yl)pyrrolidin-2-yl)methanol] | < 100 nM |
| COc1cc(-n2cnc(Nc3nc(N4CCC[C@H]4CO)nc4sc(CN5CCCCC5)cc34)c2)cc(OC)c1OC [Compound 113b, (S)-(1-(6-(piperidin-1-ylmethyl)-4-((1-(3,4,5-trimethoxyphenyl)-1H-imidazol-4-yl)amino)thieno[2,3-d]pyrimidin-2-yl)pyrrolidin-2-yl)methanol] | < 100 nM |
| COCCN1CCN(Cc2ccc3c(Nc4cn(-c5cc(OC)c(OC)c(OC)c5)cn4)nc(N4CCC[C@H]4CO)nn23)CC1 [Compound 114b, (S)-(1-(7-((4-(2-methoxyethyl)piperazin-1-yl)methyl)-4-((1-(3,4,5-trimethoxyphenyl)-1H-imidazol-4-yl)amino)pyrrolo[2,1-f][1,2,4]triazin-2-yl)pyrrolidin-2-yl)methanol] | < 100 nM |
| COc1cc(-n2cnc(Nc3nc(N4CCC[C@H]4CO)c4ccccc4n3)c2)cc(OC)c1OC [Compound 115b, (S)-(1-(2-((1-(3,4,5-trimethoxyphenyl)-1H-imidazol-4-yl)amino)quinazolin-4-yl)pyrrolidin-2-yl)methanol] | < 100 nM |
| N#Cc1ccc(-n2cnc(Nc3nc(N4CCC[C@H]4CO)nn4cccc34)c2)cc1 [Compound 116c, (S)-4-(4-((2-(2-(hydroxymethyl)pyrrolidin-1-yl)pyrrolo[2,1-f][1,2,4]triazin-4-yl)amino)-1H-imidazol-1-yl)benzonitrile] | 100 to 1000 nM |
| COc1cc(-n2cnc(Nc3nc(N4CCC[C@H]4C(N)=O)nn4c(CN5CCCCC5)ccc34)c2)cc(OC)c1OC [Compound 117a, (S)-1-(7-(piperidin-1-ylmethyl)-4-((1-(3,4,5-trimethoxyphenyl)-1H-imidazol-4-yl)amino)pyrrolo[2,1-f][1,2,4]triazin-2-yl)pyrrolidine-2-carboxamide] | < 100 nM |
| COc1cc(-n2cnc(Nc3nc(N4CCC[C@H]4C(N)=O)nn4c(CN5CCC[C@H]5C(N)=O)ccc34)c2)cc(OC)c1OC [Compound 118b, (S)-1-((2-((S)-2-carbamoylpyrrolidin-1-yl)-4-((1-(3,4,5-trimethoxyphenyl)-1H-imidazol-4-yl)amino)pyrrolo[2,1-f][1,2,4]triazin-7-yl)methyl)pyrrolidine-2-carboxamide] | < 100 nM |
| N#Cc1cccc(-n2cnc(Nc3nc(N4CCC[C@H]4CO)nn4cccc34)c2)c1 [Compound 119c, (S)-3-(4-((2-(2-(hydroxymethyl)pyrrolidin-1-yl)pyrrolo[2,1-f][1,2,4]triazin-4-yl)amino)-1H-imidazol-1-yl)benzonitrile] | < 100 nM |
| COc1cc(-n2cnc(Nc3nc(N4CCC[C@H]4CO)nn4c(CNCC5CC5)ccc34)c2)cc(OC)c1OC [Compound 120a, (S)-(1-(7-(((cyclopropylmethyl)amino)methyl)-4-((1-(3,4,5-trimethoxyphenyl)-1H-imidazol-4-yl)amino)pyrrolo[2,1-f][1,2,4]triazin-2-yl)pyrrolidin-2-yl)methanol] | < 100 nM |
| COc1cc(-n2cnc(Nc3nc(N4CCC[C@H]4CO)nn4c(CN5CCN(C(=O)OC(C)(C)C)CC5)ccc34)c2)cc(OC)c1OC [Compound 121b, (S)-tert-butyl 4-((2-(2-(hydroxymethyl)pyrrolidin-1-yl)-4-((1-(3,4,5-trimethoxyphenyl)-1H-imidazol-4-yl)amino)pyrrolo[2,1-f][1,2,4]triazin-7-yl)methyl)piperazine-1-carboxylate] | < 100 nM |
| COc1cc(-n2cnc(Nc3nc(N4CCC[C@H]4CO)nn4c(CN5CCNCC5)ccc34)c2)cc(OC)c1OC [Compound 122a, (S)-(1-(7-(piperazin-1-ylmethyl)-4-((1-(3,4,5-trimethoxyphenyl)-1H-imidazol-4-yl)amino)pyrrolo[2,1-f][1,2,4]triazin-2-yl)pyrrolidin-2-yl)methanol] | < 100 nM |
| CC(=O)c1cc(-n2cnc(Nc3nc(N4CCC[C@H]4CO)nn4cccc34)c2)ccc1O [Compound 123c, (S)-1-(2-hydroxy-5-(4-((2-(2-(hydroxymethyl)pyrrolidin-1-yl)pyrrolo[2,1-f][1,2,4]triazin-4-yl)amino)-1H-imidazol-1-yl)phenyl)ethanone] | < 100 nM |
| COc1cc(C(N)=O)cc(-n2cnc(Nc3nc(N4CCC[C@H]4CO)nn4cccc34)c2)c1 [Compound 125c, (S)-3-(4-((2-(2-(hydroxymethyl)pyrrolidin-1-yl)pyrrolo[2,1-f][1,2,4]triazin-4-yl)amino)-1H-imidazol-1-yl)-5-methoxybenzamide] | < 100 nM |
| COc1cc(-n2cnc(Nc3nc(N4CCC[C@H]4C(N)=O)nn4c(C(=O)N5CCCCC5)ccc34)c2)cc(OC)c1OC [Compound 126c, (S)-1-(7-(piperidine-1-carbonyl)-4-((1-(3,4,5-trimethoxyphenyl)-1H-imidazol-4-yl)amino)pyrrolo[2,1-f][1,2,4]triazin-2-yl)pyrrolidine-2-carboxamide] | < 100 nM |
| N#Cc1cc(O)cc(-n2cnc(Nc3nc(N4CCC[C@H]4CO)nn4cccc34)c2)c1 [Compound 127b, (S)-3-hydroxy-5-(4-((2-(2-(hydroxymethyl)pyrrolidin-1-yl)pyrrolo[2,1-f][1,2,4]triazin-4-yl)amino)-1H-imidazol-1-yl)benzonitrile] | < 100 nM |
| OC[C@@H]1CCCN1c1nc(Nc2cn(-c3ccc(F)c(F)c3)cn2)c2cccn2n1 [Compound 128c, (S)-(1-(4-((1-(3,4-difluorophenyl)-1H-imidazol-4-yl)amino)pyrrolo[2,1-f][1,2,4]triazin-2-yl)pyrrolidin-2-yl)methanol] | < 100 nM |
| COc1cc(-n2cnc(Nc3nc(N4CCC[C@H]4CO)nn4c(CNC(C)C)ccc34)c2)cc(OC)c1OC [Compound 129b, (S)-(1-(7-((isopropylamino)methyl)-4-((1-(3,4,5-trimethoxyphenyl)-1H-imidazol-4-yl)amino)pyrrolo[2,1-f][1,2,4]triazin-2-yl)pyrrolidin-2-yl)methanol] | < 100 nM |
| COc1cc(-n2cnc(Nc3nc(N4CCC[C@H]4C(N)=O)nc4ccccc34)c2)cc(OC)c1OC [Compound 130a, (S)-1-(4-((1-(3,4,5-trimethoxyphenyl)-1H-imidazol-4-yl)amino)quinazolin-2-yl)pyrrolidine-2-carboxamide] | < 100 nM |
| COc1cc(OC)cc(-n2cnc(Nc3nc(N4CCC[C@H]4C(N)=O)nn4cccc34)c2)c1 [Compound 131a, (S)-1-(4-((1-(3,5-dimethoxyphenyl)-1H-imidazol-4-yl)amino)pyrrolo[2,1-f][1,2,4]triazin-2-yl)pyrrolidine-2-carboxamide] | < 100 nM |
| COc1cc(-n2cnc(Nc3nc(N4CCC[C@H]4C(N)=O)c4ccsc4n3)c2)cc(OC)c1OC [Compound 132b, (S)-1-(2-((1-(3,4,5-trimethoxyphenyl)-1H-imidazol-4-yl)amino)thieno[2,3-d]pyrimidin-4-yl)pyrrolidine-2-carboxamide] | < 100 nM |
